According to patent US20020028809A1 (SUNTORY LIMITED, priority 1999, published 2002):

Columns and labels:
[1] = target: T1, α1β1γδ subtype of nicotinic acetylcholine receptors (Rattus norvegicus, UniProt P18916+P25108+P25109+P25110); experiment: Binding assays at α1β1γδ subtype of nicotinic acetylcholine receptors ([3H]-α-bungarotoxin, rat muscle extract); conditions: for remaining activity at 100 µM / remaining activity at 1000 µM: read-out: control % of [3H]-α-Bgt binding
T1 construct: Native receptor, no construct: "Triton X100 (2% w/v) was added
Source text: (§1) Methods for evaluating binding capabilities of the compounds at nicotinic acetylcholine receptors are different by subtypes of receptors. Binding capabilities of the compounds at α4β2 nicotinic acetylcholine receptors are examined using rat brain membrane obtained from whole homogenized brain, and determining the inhibiting rate of the compounds against [^3H]-cytisine binding to said brain membrane. Furthermore, the binding capabilities of the compounds at α1β1γδ nicotinic acetylcholine receptors are examined using homogenized rat muscle, and determining the inhibiting rate of the compounds against [^3H]-α-bungarotoxin binding to said muscle homogenate.
Binding Assays at α1β1γδ Subtype of Nicotinic Acetylcholine Receptors
Affinity of the compounds of the present invention to α1βγδ subtype of nicotinic acetylcholine receptors was measured by the following method, which was modified method described by Garcha H. S., Thomas P., Spivak C.
(1) Preparation of Rat Skeletal Muscles Containing α1β1γδ Subtype of Nicotinic Acetylcholine Receptors
The substantially same animals described in the Biological Experiment 1 were used.
Isolation of α1β1γδ subtype of nicotinic acetylcholine receptors was performed as follow. That is, rat posterior skeletal muscles were isolated just after sacrificed by decapitation, washed with ice-cooled saline solution and then frozen at −80° C. with liquid nitrogen and stored till using. After thawing the frozen muscles, tissue was homogenized (40% w/v) with buffer solution [2.5 mM of sodium phosphate buffer (pH:7.2), 90 mM of NaCl, 2 mM of KCl, 1 mM of EDTA, 2 mM of benzamidine, 0.1 mM of benzethonium chloride, […], 0.01% of sodium azide] in Waring blender (Waring blender 34BL97; WARING PRODUCTS DIVISION DYNAMICS CORPORATION OF AMERICA) for 60 seconds. The homogenate were centrifuged under 20,000×G for 60 minutes at 4° C. The supernatant was separated and the resulting pellet was added to the same buffer (1.5 ml/g wet weight), and homogenized under the same conditions. Triton X100 (2% w/v) was added and the mixture was stirred for 3 hours at 4° C. The centrifugation at 100,000×G for 60 minutes at 4° C. yielded the rat muscle extract as supernatant. This was stored at 4° C. for up to 4 weeks, and used for binding assays at receptors.
(2) Experiments of α1β1γδSubtype of Nicotinic Acetylcholine Receptors Binding
Receptors binding experiments were performed as follow. That is, the extract of rat muscle containing 600-900 μg of protein was added to test tubes containing test compounds and incubated for 15 minutes at 37° C. Then, to this mixture was added 1 nM of [^3H]-α-bungarotoxin (α-Bgt) and further incubated for 2 hours. The samples were isolated by vacuum filtration onto Whatman GF/B filters, which were prerinsed with 0.5% polyethylenimine just prior to sample filtration, using Brandel multi manifold cell harvester. The filters were rapidly rinsed with washing solution (10 mM of KH2PO4, 150 mM of NaCl, pH 7.2, room temperature) (5×1 ml). The filters were counted in 3 ml of clearsol I (Nacalai Tesque Inc.). Determination of nonspecific binding was incubated in the presence of 1 μM α-Bgt.
In the receptor binding experiments, said buffer solution was added for adjusting the final concentration of BSA to be 0.05%.
Analyses of the experimental results were conducted by the same way as described in the Biological Experiment 1.

[2] = target: T2, human α4β2 subtype of nicotinic acetylcholine receptors (Homo sapiens, UniProt P17787+P43681); experiment: Agonist activities at human α4β2 subtype of nicotinic acetylcholine receptors expressed in Xenopus oocytes (membrane potential holding method); assay type: cell-based; conditions: for Emax at 100 µM: read-out: Agonist activity: control % by response at 100 μM of the test compound
T2 construct: expressed in transfected cells; host or cells: Xenopus laevis oocytes injected with 50 ng each of α4 and β2 cRNA (pSP64 polyA vector)
Procedure: Agonist effect in human α4β2 subtype of nicotinic acetylcholine receptors are examined by using human nicotinic acetylcholine receptors prepared in oocytes of Xenopus laevis, which is injected with cRNA from the corresponding cloning cDNA of human α4 and β2 subunits of nicotinic acetylcholine receptors, and to measure the expression of electric response by adding the test compounds to perfusion solution by means of membrane potential holding method.
Agonist Activities at Human α4β2 Subtype of Nicotinic Acetylcholine Receptors
(1) Preparation of cRNA of Human α4β2 Subtype of Nicotinic Acetylcholine Receptors
Obtained hnACh-R α4 cDNA and hnACh-R β2 cDNA were inserted to the cRNA expression vector (pSP64 polyA) having SP6 RNA promoter to construct hnACh-R α4/pSP64 polyA and hnACh-R β2/pSP64 polyA, respectively. After cutting from expression vector by restriction enzyme (EcoRI), transcription was performed by affecting SP6 RNA polymerase in the presence of cap analogues to obtain hnACh-R α4 cRNA and hnACh-R β2 cRNA, respectively.
(2) Expression of Human α4β2 Subtype Nicotinic Acetylcholine Receptors in Xenopus oocytes
Oocytes were purchased from Kitanihonseibutsukyohzai Co., Ltd., which were already enucleated from Xenopus laevis, and used in this experiment.
The oocytes were treated with collagenase (Sigma type I; 1 mg/ml) in calcium-free modified Birth's solution (88 mM of NaCl, 1 mM of KCl, 2.4 mM of NaHCO3, 0.82 mM of MgSO4, 15 mM of HEPES, pH 7.6) under gently stirring at room temperature for 90 minutes, and washed out the enzyme from the tissue. Then, oocytes were separated from ovarian follicle by tweezers, and isolated oocytes were placed in antibiotics containing modified Birth's solution (88 mM of NaCl, 1 mM of KCl, 2.4 mM of NaHCO3, 0.82 mM of MgSO4, 15 mM of HEPES, pH 7.6, and 0.1 v/v% of mixture solution containing of penicillin and streptomycin for incubation; Sigma Co.). […] In oocytes, heterogeneous quintuple [(α4)2(β2)3] was composed by translation of injected cRNAs, and ion channel receptors were constructed on cell membrane.
(3) Agonist Activities at Human α4β2 Subtype of Nicotinic Acetylcholine Receptors
Recordings of response at human α4β2 subtype of nicotinic acetylcholine receptors by means of membrane potential holding method were performed as follow. […] Test compounds were added to the perfusion solution, and recorded the peak strength of induced inward current. In order to normalize the response of test compounds, the response with acetylcholine (Ach) were recorded before and after application of the test compounds. Generally in the oocytes just after isolated, the response of intrinsic muscarinic acetylcholine receptors, which is inward electric current caused by activation of calcium dependence chloride ion channels with increase of the intracellular calcium concentration by stimulation of receptors, is observed. […] Therefore, the responses observed in oocytes with injection of hnACh-R α4 cRNA and hnACh-R β2 cRNA, i.e., the inward current induced by the intracellular influx of sodium ion according to the stimulation of receptors, would be the freshly observed responses of human α4β2 subtype nicotinic acetylcholine receptors.

[3] = target: T3, α4β2 subtype of nicotinic acetylcholine receptors (Rattus norvegicus, UniProt P09483+P12390); experiment: Binding assays at α4β2 subtype of nicotinic acetylcholine receptors ([3H]-cytisine, rat brain membrane)
T3 construct: examined using rat brain membrane obtained from whole homogenized brain; from tissue; host or cells: whole brain of Fischer-344 male rats, membrane pellet
Source text: as §1
Binding assays at α4β2 Subtype of Nicotinic Acetylcholine Receptors
(1) Preparation of Rat Brain Membrane Containing α4β2 Subtype of Nicotinic Acetylcholine Receptors
Rats were housed in the breeding cage controlled of the room temperature at 23±1° C., and the humidity of 55±5% for 1 to 4 weeks. Rats (3 to 4 rats per a cage) were housed with lights on for 12 hours daily (from 7:00 to 19:00), and allowed free access to food and water.
Preparation of rat brain membrane containing α4β2 subtype of nicotinic acetylcholine receptors was performed as follow. That is, rat brains were isolated just after sacrificed by decapitation, washed with ice-cooled saline solution and then frozen at −80° C. with liquid nitrogen and stored till using. After thawing the frozen brain, the brain was homogenized in 10 volumes of ice-cooled buffer solution (50 mM of Tris-HCl, 120 mM of NaCl, 5 mM of KCl, 1 mM of MgCl2, 2mM of CaCl2; pH 7.4; 4° C.) using homogenizer (HG30, Hitachi Kohki Ltd.) for 30 seconds, and the homogenate were centrifuged under 1,000×G for 10 minutes at 4° C. The resulting supernatant was separated and the pellet was homogenized again with half volume of aforementioned prior buffer solution and centrifuged under the same conditions. Combined supernatant was further centrifuged under 40,000×G for 20 minutes at 4° C. The pellet was suspended in buffer solution and used for binding assays at receptors.
(2) Experiments of α4β2 Subtype of Nicotinic Acetylcholine Receptors Binding
Suspensions of membrane pellets containing 400-600 μg of protein were added to test tubes containing test compounds and [^3H]-cytisine (2 nM) in a final volume of 200 μl and incubated for 75 minutes in ice-cooled bath. The samples were isolated by vacuum filtration onto Whatman GF/B filters, which were prerinsed with 0.5% polyethylenimine just prior to sample filtration, using Brandel multi manifold cell harvester. The filters were rapidly washed with buffer solution (3×1 ml). The filters were counted in 3 ml of clearsol I (Nacalai Tesque Inc.).
Analyses of the experimental results were conducted using the Accufit Competition Program (Beckman Ltd.).

T3 sequence (P09483 31-630): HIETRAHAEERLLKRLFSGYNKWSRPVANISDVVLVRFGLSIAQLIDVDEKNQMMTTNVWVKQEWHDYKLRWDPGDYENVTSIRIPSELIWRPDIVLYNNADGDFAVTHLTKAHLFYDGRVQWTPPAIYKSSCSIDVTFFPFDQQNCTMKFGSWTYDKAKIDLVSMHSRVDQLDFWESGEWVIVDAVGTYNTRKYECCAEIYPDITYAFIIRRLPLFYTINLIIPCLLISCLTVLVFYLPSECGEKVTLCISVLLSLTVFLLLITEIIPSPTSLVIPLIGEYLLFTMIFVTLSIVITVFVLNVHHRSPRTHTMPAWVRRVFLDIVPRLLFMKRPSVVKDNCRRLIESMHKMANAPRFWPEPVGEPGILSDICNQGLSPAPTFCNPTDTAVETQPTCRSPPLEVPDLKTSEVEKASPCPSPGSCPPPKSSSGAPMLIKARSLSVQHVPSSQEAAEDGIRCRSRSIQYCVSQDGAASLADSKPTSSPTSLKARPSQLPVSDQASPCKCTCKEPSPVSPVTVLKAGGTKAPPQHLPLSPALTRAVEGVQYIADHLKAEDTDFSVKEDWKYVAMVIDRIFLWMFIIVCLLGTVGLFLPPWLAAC
T3 sequence (P12390 25-500): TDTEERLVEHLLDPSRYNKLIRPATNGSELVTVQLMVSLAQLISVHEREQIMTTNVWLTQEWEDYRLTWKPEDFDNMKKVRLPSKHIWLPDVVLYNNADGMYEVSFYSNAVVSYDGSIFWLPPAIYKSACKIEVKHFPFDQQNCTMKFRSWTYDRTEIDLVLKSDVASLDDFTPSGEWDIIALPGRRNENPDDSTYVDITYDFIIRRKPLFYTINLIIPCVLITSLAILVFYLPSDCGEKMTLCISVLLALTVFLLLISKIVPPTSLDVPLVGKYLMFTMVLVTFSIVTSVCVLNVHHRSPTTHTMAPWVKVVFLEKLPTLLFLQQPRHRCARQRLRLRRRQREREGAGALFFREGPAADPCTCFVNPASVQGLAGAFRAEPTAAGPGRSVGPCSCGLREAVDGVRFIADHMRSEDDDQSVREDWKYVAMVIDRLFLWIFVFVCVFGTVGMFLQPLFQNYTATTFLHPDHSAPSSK
T2 sequence (P43681 29-627 limits assumed): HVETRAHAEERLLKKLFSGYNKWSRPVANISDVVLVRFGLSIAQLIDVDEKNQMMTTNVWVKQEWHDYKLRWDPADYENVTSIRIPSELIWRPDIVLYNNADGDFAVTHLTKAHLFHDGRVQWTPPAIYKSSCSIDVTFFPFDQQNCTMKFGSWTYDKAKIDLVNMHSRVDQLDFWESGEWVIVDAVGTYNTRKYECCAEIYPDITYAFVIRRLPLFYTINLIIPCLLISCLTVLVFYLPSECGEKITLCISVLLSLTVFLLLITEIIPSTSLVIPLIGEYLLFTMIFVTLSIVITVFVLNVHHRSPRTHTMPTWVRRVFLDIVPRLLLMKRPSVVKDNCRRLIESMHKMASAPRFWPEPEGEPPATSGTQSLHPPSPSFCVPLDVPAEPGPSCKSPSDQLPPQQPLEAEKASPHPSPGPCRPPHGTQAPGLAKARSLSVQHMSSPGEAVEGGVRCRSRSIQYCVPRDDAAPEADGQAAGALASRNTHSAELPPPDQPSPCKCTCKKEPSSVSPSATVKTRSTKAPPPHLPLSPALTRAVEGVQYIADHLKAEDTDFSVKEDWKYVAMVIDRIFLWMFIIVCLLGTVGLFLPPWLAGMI
T2 sequence (P17787 26-502): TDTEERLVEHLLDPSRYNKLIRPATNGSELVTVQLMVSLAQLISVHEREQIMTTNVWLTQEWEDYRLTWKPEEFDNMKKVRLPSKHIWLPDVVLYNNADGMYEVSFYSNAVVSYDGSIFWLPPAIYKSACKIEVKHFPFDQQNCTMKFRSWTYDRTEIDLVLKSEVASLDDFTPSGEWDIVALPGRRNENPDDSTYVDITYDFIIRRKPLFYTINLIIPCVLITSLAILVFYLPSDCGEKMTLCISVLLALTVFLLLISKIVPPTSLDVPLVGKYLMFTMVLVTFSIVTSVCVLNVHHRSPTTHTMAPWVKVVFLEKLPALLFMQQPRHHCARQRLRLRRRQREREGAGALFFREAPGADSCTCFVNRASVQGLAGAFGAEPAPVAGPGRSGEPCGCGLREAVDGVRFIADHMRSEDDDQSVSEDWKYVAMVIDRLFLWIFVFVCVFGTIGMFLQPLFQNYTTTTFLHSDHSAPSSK
T1 sequence (P25108 21-457): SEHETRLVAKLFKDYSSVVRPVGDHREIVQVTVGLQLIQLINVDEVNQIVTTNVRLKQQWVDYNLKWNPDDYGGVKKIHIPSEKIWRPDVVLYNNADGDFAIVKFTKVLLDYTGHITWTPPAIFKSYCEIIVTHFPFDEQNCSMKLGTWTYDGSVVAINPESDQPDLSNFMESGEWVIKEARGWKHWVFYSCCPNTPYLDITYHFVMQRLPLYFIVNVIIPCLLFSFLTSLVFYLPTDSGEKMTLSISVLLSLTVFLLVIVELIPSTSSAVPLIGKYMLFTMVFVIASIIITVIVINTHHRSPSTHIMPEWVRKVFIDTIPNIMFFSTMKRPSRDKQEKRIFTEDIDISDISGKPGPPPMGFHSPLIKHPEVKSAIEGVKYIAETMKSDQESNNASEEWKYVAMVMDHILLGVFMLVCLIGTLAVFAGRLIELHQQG
T1 sequence (P25110 22-517): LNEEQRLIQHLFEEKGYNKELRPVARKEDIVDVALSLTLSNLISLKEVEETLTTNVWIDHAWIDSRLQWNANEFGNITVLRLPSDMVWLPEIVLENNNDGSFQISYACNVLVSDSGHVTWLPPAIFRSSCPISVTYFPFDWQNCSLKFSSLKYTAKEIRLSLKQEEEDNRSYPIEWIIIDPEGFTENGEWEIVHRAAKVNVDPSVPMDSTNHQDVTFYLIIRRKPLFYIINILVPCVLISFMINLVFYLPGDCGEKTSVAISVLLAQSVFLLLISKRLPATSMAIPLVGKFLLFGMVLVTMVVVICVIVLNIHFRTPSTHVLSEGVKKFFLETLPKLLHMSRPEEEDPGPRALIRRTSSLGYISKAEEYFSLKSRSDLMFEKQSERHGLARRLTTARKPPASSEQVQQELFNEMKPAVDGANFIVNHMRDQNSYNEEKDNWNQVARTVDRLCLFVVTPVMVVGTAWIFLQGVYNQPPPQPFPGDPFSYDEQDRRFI
T1 sequence (P25109 24-501): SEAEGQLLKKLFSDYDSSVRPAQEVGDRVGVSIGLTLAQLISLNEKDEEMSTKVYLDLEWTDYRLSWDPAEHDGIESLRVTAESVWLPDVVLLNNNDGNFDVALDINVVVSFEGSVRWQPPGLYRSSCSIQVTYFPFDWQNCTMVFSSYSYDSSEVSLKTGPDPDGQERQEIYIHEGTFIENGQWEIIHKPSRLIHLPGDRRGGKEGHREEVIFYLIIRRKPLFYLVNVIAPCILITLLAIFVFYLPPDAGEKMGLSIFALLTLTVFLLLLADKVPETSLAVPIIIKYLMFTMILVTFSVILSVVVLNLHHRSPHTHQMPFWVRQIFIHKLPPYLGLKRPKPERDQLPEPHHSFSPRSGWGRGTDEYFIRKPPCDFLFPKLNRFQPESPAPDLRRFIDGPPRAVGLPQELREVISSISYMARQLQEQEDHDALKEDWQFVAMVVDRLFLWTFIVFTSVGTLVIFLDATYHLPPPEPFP

Compound: N=c1sccn1Cc1ccc(Cl)cc1 [Compound 57, 3-(4-chlorobenzyl)-2-imino-2,3-dihydrothiazole]
- Ki [1]: 13 µM
- Emax at 100 µM [2]: 23%
- Ki [3]: 0.0119 µM

Compound: Nc1nccn1Cc1cnc(Cl)s1 [Compound 50, 2-amino-1-(2-chloro-5-thiazolyl)methylimidazole]
- Ki [1]: 818 µM
- EC50 [2]: 92.4 µM
- Ki [3]: 0.0271 µM

Compound: N=C1OCCN1Cc1ccc(Cl)nc1 [Compound 28, 3-(6-chloro-3-pyridyl)methyl-2-iminooxazolidine]
- Ki [1]: 39.8 µM
- EC50 [2]: 15.5 µM
- Ki [3]: 0.00277 µM

Compound: N=c1ccc(Cl)nn1Cc1ccc(Cl)nc1 [Compound 6, 6-chloro-2-(6-chloro-3-pyridyl)methyl-3-imino-2,3-dihydropyridazine]
- remaining activity at 100 µM [1]: 44%
- remaining activity at 1000 µM [1]: 15%
- EC50 [2]: 86 µM
- Ki [3]: 0.015 µM

Compound: Nc1nccn1Cc1c[nH]c2ncccc12 [Compound 59, 2-amino-i-(7-aza-3-indolyl)methylimidazole]
- Ki [1]: 1230 µM
- Emax at 100 µM [2]: 21%
- Ki [3]: 0.0502 µM

Compound: N=c1sccn1Cc1cccnc1 [Compound 1, 2-imino-3-(3-pyridyl)methyl-2,3-dihydrothiazole]
- Ki [1]: 4.9 µM
- Emax at 100 µM [2]: 20%
- Ki [3]: 0.00484 µM

Compound: N=c1sccn1Cc1ccc([N+](=O)[O-])cc1 [Compound 62, 2-imino-3-(4-nitrobenzyl)-2,3-dihydrothiazole]
- Ki [1]: 79.8 µM
- EC50 [2]: 325 µM
- Ki [3]: 0.0291 µM

Compound: N=C1OCCCN1Cc1ccc(Cl)nc1 [Compound 16, 3-(6-chloro-3-pyridyl)methyl-2-imino-3,4,5,6-tetrahydro-2H-1,3-oxazine]
- remaining activity at 100 µM [1]: 14%
- remaining activity at 1000 µM [1]: -2%
- EC50 [2]: 1.5 µM
- Ki [3]: 0.00065 µM

Compound: Cc1csc(=N)n1Cc1ccc(Br)nc1 [Compound 19, 3-(6-bromo-3-pyridyl)methyl-2-imino-4-methyl-2,3-dihydrothiazole]
- Ki [1]: 11.7 µM
- Emax at 100 µM [2]: 3%
- Ki [3]: 0.0105 µM

Compound: NC1=NCCCN1Cc1ccc(Cl)nc1 [Compound 29, 1-(6-Chloro-3-pyridyl)methyl-2-imino-1,2,3,4,5,6-hexahydropyrimidine]
- Ki [1]: 7.02 µM
- EC50 [2]: 0.5 µM
- Ki [3]: 0.00025 µM

Compound: Cc1ccc(Cn2ccnc2N)cn1 [Compound 56, 2-amino-i-(6-methyl-3-pyridyl)methylimidazole]
- Ki [1]: 545 µM
- Emax at 100 µM [2]: 11%
- Ki [3]: 0.165 µM
